Measurements reported in ChEMBL document CHEMBL1828574, “Synthesis and structural studies of pentacycloundecane-based HIV-1 PR inhibitors: a hybrid 2D NMR and docking/QM/MM/MD approach” (Eur J Med Chem, 2011).
Where a SMILES comes first, the peptide text is derived from it. The star is where a group is joined. X1 = Oc1cccc(N*)c1

Assays:
[1] = biological target: Human immunodeficiency virus type 1 protease (Human immunodeficiency virus 1, UniProt Q72874, Q7K); assay: Inhibition of HIV1 subtype C protease Q7K mutant expressed in Escherichia coli BL21 (DE3) pLysS using Lys-Ala-Arg-Val-Nle-p-nitro-Phe-Glu-Ala-Nle-NH2 as substrate by spectrophotometry
MT4 = assay: Cytotoxicity against human MT4 cells after 5 days by XTT assay; assay type: cell-based; conditions: MT4, 120 h
[2] = Ratio of cytotoxicity for Lopinavir to compound for human MT4 cells after 5 days by XTT assay; assay type: cell-based
[3] = Solubility of the compound in aqueous buffer at pH 5; assay type: physicochemical

| SMILES | IC50 [1] [µM] | IC50 (MT4) [µM] | selectivity ratio at 120 h [2] | solubility [3] |
| --- | --- | --- | --- | --- |
| CC[C@H](C)[C@H](NC(=O)[C@@H](N)CO)C(=O)N[C@@H](C)C(=O)N[C@@H](CCC(=O)O)C(=O)Nc1cccc(O)c1 (H-SIAE-X1) | 10 | – | – | – |
| CC[C@H](C)[C@H](NC(=O)[C@@H](N)CO)C(=O)N[C@@H](C)C(=O)N[C@@H](CCC(=O)O)C(=O)NC12NC(=O)C3(O)C4C5CC(C6C5C3C61)C42 (mixture of isomers) | 0.078 | 218 | 6000 | soluble |
| CC[C@H](C)[C@H](NC(=O)[C@@H](N)CO)C(=O)N[C@@H](C)C(=O)N[C@@H](CCC(=O)O)C(=O)NC12NC(=O)C3(OC(C)=O)C4C5CC(C6C5C3C61)C42 (mixture of isomers) | > 10 | – | 6000 | soluble |
| CC[C@H](C)[C@H](N)C(=O)N[C@@H](C)C(=O)N[C@@H](CCC(=O)O)C(=O)NC12NC(=O)C3(O)C4C5CC(C6C5C3C61)C42 (mixture of isomers) | 0.5 | 216 | 6000 | soluble |
| CC[C@H](C)[C@H](NC(=O)[C@@H](N)CO)C(=O)N[C@H](C(=O)N[C@@H](CCC(=O)O)C(=O)NC12NC(=O)C3(O)C4C5CC(C6C5C3C61)C42)C(C)C (mixture of isomers) | 2 | – | 6000 | soluble |
| CC[C@H](C)[C@H](NC(=O)[C@@H](N)CO)C(=O)N[C@@H](C)C(=O)N[C@@H](CCC(N)=O)C(=O)NC12NC(=O)C3(O)C4C5CC(C6C5C3C61)C42 (mixture of isomers) | 5 | – | 6000 | soluble |
| CC[C@H](C)[C@H](NC(=O)[C@@H](N)CO)C(=O)N[C@@H](C)C(=O)NC12NC(=O)C3(O)C4C5CC(C6C5C3C61)C42 (mixture of isomers; form 1) | 0.5 | > 300 | 6000 | soluble |
| CC[C@H](C)[C@H](NC(=O)[C@@H](N)CO)C(=O)N[C@@H](C)C(=O)NC12NC(=O)C3(O)C4C5CC(C6C5C3C61)C42 (mixture of isomers; form 2) | 10 | – | – | – |
| COC(=O)N[C@H](C(=O)N[C@@H](Cc1ccccc1)[C@@H](O)CN(Cc1ccc(-c2ccccn2)cc1)NC(=O)[C@@H](NC(=O)OC)C(C)(C)C)C(C)(C)C [ATAZANAVIR] | 0.004 | – | – | – |
| Cc1cccc(C)c1OCC(=O)N[C@@H](Cc1ccccc1)[C@@H](O)C[C@H](Cc1ccccc1)NC(=O)[C@H](C(C)C)N1CCCNC1=O [LOPINAVIR] | – | 0.035 | – | – |
